Assay results as given in PubChem BioAssay (NCI).
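These data come from cells grown in 96-well plates and exposed to compound for 48 hours at five concentrations. GI50: concentration for 50% inhibition of growth. TGI denotes the concentration required for complete inhibition of growth.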

Experiments:
Assay in all cases: NCI-60 cell line screen, 48 h
NCI-H522 lung = test system: NCI-H522 lung
DU-145 prostate = test system: DU-145 prostate
HL-60(TB) leukemia = test system: HL-60(TB) leukemia
K-562 leukemia = test system: K-562 leukemia
MALME-3M melanoma = test system: MALME-3M melanoma
SN12C renal = test system: SN12C renal
NCI-H23 lung = test system: NCI-H23 lung
HT29 colon = test system: HT29 colon
SF-539 CNS = test system: SF-539 CNS
A498 renal = test system: A498 renal

| SMILES | GI50 (NCI-H522 lung) | TGI (NCI-H522 lung) | GI50 (DU-145 prostate) | TGI (DU-145 prostate) | GI50 (HL-60(TB) leukemia) | TGI (HL-60(TB) leukemia) | GI50 (K-562 leukemia) | TGI (K-562 leukemia) | GI50 (MALME-3M melanoma) | TGI (MALME-3M melanoma) | GI50 (SN12C renal) | TGI (SN12C renal) | GI50 (NCI-H23 lung) | TGI (NCI-H23 lung) | GI50 (HT29 colon) | TGI (HT29 colon) | GI50 (SF-539 CNS) | TGI (SF-539 CNS) | GI50 (A498 renal) | TGI (A498 renal) |
| --- | --- | --- | --- | --- | --- | --- | --- | --- | --- | --- | --- | --- | --- | --- | --- | --- | --- | --- | --- | --- |
| C=C/C(C)=C/C[C@]1(C)[C@H](C)[C@@H](OC(=O)CCC)[C@H](O)[C@@]23C(=C[C@H](OC)C[C@@H]12)[C@@H](OC(=O)CCC)O[C@H]3OC(C)=O | 239 nM | 741 nM | 1530 nM | 2900 nM | 228 nM | 693 nM | 438 nM | 2410 nM | 313 nM | 1030 nM | 316 nM | 1400 nM | 1190 nM | 2830 nM | 343 nM | 1420 nM | 566 nM | 1600 nM | 223 nM | 645 nM |
| O=S1(=O)N(Cc2ccccc2)[C@@H](Cc2ccccc2)[C@H](O)[C@H](O)[C@H](Cc2ccccc2)N1Cc1ccccc1 | 847 nM | 4790 nM | 3210 nM | 7550 nM | 2970 nM | 8720 nM | 3050 nM | 9380 nM | 2750 nM | 6370 nM | 3260 nM | 7680 nM | 3110 nM | 6710 nM | 2630 nM | 5640 nM | 3370 nM | 6760 nM | 2450 nM | 5180 nM |
| O=C(O)/C=C\C(=O)Nc1ccccn1 | – | > 100000 nM | – | > 100000 nM | – | > 100000 nM | – | > 100000 nM | – | > 100000 nM | – | > 100000 nM | – | > 100000 nM | – | > 100000 nM | – | > 100000 nM | – | > 100000 nM |
| C1=C/COCc2cc(ccc2OCCN2CCCC2)Nc2nccc(n2)-c2ccc(o2)COC/1 | 1840 nM | 6130 nM | 1570 nM | 13800 nM | 729 nM | 6270 nM | 2650 nM | > 33100 nM | 1400 nM | 3690 nM | 990 nM | 5000 nM | 1610 nM | 5240 nM | 1330 nM | 7330 nM | 1720 nM | 3330 nM | 1520 nM | 3570 nM |
| O=C(/C=C/c1ccc(C(F)(F)F)cc1)Nc1ccc(C=C2c3ccccc3C(=O)c3ccccc32)cc1 | 2360 nM | 25400 nM | 30500 nM | > 100000 nM | 1780 nM | 8750 nM | – | – | 8910 nM | > 100000 nM | 26700 nM | > 100000 nM | 3320 nM | > 100000 nM | 4560 nM | > 100000 nM | 23100 nM | 96300 nM | 2600 nM | 52800 nM |
| CCOc1ccc(/C(C=O)=C(\Cl)c2ccc(OC)cc2)cc1 | – | > 100000 nM | – | > 100000 nM | – | > 100000 nM | – | > 100000 nM | – | > 100000 nM | – | > 100000 nM | – | > 100000 nM | – | > 100000 nM | – | > 100000 nM | – | > 100000 nM |
| COc1ccc(C(=O)c2cc3c(N)c(C(=O)Nc4ccccc4)sc3nc2C)cc1 | 1890 nM | > 100000 nM | 2210 nM | > 100000 nM | 500 nM | 26300 nM | 526 nM | > 100000 nM | – | – | 1680 nM | > 100000 nM | 2540 nM | > 100000 nM | 562 nM | > 100000 nM | 598 nM | 4570 nM | 184 nM | 645 nM |
| C#CCNC(=S)N/N=C(\C)c1ccccn1 | 3330 nM | > 100000 nM | 404 nM | > 59300 nM | 84 nM | 360 nM | 75.1 nM | > 100000 nM | 1510 nM | > 100000 nM | 388 nM | > 100000 nM | 208 nM | > 100000 nM | 234 nM | > 100000 nM | 350 nM | 3520 nM | 1070 nM | 10100 nM |
| CC[C@@]1(OC(=O)CN)C(=O)OCc2c1cc1n(c2=O)Cc2c-1nc1cc3c(cc1c2CCl)OCO3 | 25.7 nM | 2190 nM | < 10 nM | > 33600 nM | < 10 nM | – | 64.2 nM | – | 50.1 nM | 4440 nM | < 11.7 nM | 3760 nM | < 10 nM | 88.5 nM | 52 nM | 1220 nM | < 10 nM | < 31.8 nM | 66.1 nM | 1240 nM |
| O=C1C2=C(C(=O)c3cnccc31)C1C=CC2CC1 (stereo not drawn) | 1960 nM | 4100 nM | 1800 nM | 3240 nM | 1250 nM | 4630 nM | 1640 nM | – | 2120 nM | 4450 nM | 1690 nM | 3100 nM | 1820 nM | 4020 nM | 2580 nM | 5700 nM | 2270 nM | 4500 nM | 16100 nM | 29700 nM |
| [O-][N+]1(CC[N+]2([O-])CCCCC2)CCCCC1 | – | > 100000 nM | – | > 100000 nM | – | > 100000 nM | – | > 100000 nM | – | > 100000 nM | – | > 100000 nM | – | > 100000 nM | – | > 100000 nM | – | > 100000 nM | – | > 100000 nM |
| c1cc(-c2nnc(SSc3ncnc4nc[nH]c34)o2)ccn1 | 1630 nM | > 100000 nM | 455 nM | > 100000 nM | 2490 nM | > 100000 nM | 351 nM | > 100000 nM | 2080 nM | > 100000 nM | 6600 nM | > 100000 nM | 2730 nM | > 100000 nM | 2420 nM | > 100000 nM | 1840 nM | > 100000 nM | 4610 nM | > 100000 nM |
| CN1CCN(Cc2ccc(NC(=O)c3cncc(C#Cc4cnc(N)cc4C#N)c3)cc2C(F)(F)F)CC1 | 3690 nM | 17700 nM | 3250 nM | 15500 nM | 768 nM | 3580 nM | 34 nM | 12100 nM | 264 nM | 943 nM | 2460 nM | 10700 nM | 2240 nM | 13700 nM | 1040 nM | 15500 nM | 959 nM | 3550 nM | 227 nM | 3670 nM |
